Publication PMC9814781, “Structure-based design of a dual-warhead covalent inhibitor of FGFR4” (Communications Chemistry, 2022)

Experiments:
DYRK4 = biological target: T1, DYRK4 (Homo sapiens, UniProt Q9NR20); test: Kinase selectivity profiling; assay type: biochemical; conditions: DYRK4, 1000 nM
T1 construct: purchased ICE Bioscience

TRKB = TRKB (Homo sapiens, UniProt Q16620); test: Kinase selectivity profiling
TSSK1 = TSSK1 (Homo sapiens, UniProt Q9BXA7); test: Kinase selectivity profiling
PI3K(p120gamma) = PI3K(p120gamma) (Homo sapiens, UniProt P48736); test: Kinase selectivity profiling
SRM = SRM (Homo sapiens, UniProt Q9H3Y6); test: Kinase selectivity profiling
CK1γ1 = CK1γ1 (Homo sapiens, UniProt Q9HCP0); test: Kinase selectivity profiling
ITK = ITK (Homo sapiens, UniProt Q08881); test: Kinase selectivity profiling
ACK = ACK (Homo sapiens, UniProt Q07912); test: Kinase selectivity profiling
MER = MER (Homo sapiens, UniProt Q12866); test: Kinase selectivity profiling
GLK = GLK (Homo sapiens, UniProt Q8IVH8); test: Kinase selectivity profiling
CK1α(CSNK1A1) = CK1α(CSNK1A1) (Homo sapiens, UniProt P48729); test: Kinase selectivity profiling
ABL2 = ABL2 (Homo sapiens, UniProt P42684); test: Kinase selectivity profiling
Her4(ERBB4) = Her4(ERBB4) (Homo sapiens, UniProt Q15303); test: Kinase selectivity profiling
MAP2K1 = MAP2K1 (Homo sapiens, UniProt Q02750); test: Kinase selectivity profiling
PLK1 = PLK1 (Homo sapiens, UniProt P53350); test: Kinase selectivity profiling
SGK2 = SGK2 (Homo sapiens, UniProt Q9HBY8); test: Kinase selectivity profiling
NPM1-ALK = NPM1-ALK (Homo sapiens, UniProt P06748+Q9UM73); test: Kinase selectivity profiling
FRK = FRK (Homo sapiens, UniProt P42685); test: Kinase selectivity profiling
AKT3 = AKT3 (Homo sapiens, UniProt Q9Y243); test: Kinase selectivity profiling
EPHA8 = EPHA8 (Homo sapiens, UniProt P29322); test: Kinase selectivity profiling
TAOK1 = TAOK1 (Homo sapiens, UniProt Q7L7X3); test: Kinase selectivity profiling
EPHB3 = EPHB3 (Homo sapiens, UniProt P54753); test: Kinase selectivity profiling
IGF1R = IGF1R (Homo sapiens, UniProt P08069); test: Kinase selectivity profiling
HCK = HCK (Homo sapiens, UniProt P08631); test: Kinase selectivity profiling
TIE2 = TIE2 (Homo sapiens, UniProt Q02763); test: Kinase selectivity profiling
TNIK = TNIK (Homo sapiens, UniProt Q9UKE5); test: Kinase selectivity profiling
FGFR3 = FGFR3 (Homo sapiens, UniProt P22607); test: Kinase inhibition assay (ADP-Glo); assay type: biochemical; design: FGFR3 (residues 450–758); 6xHis + PreScission site (N, cleaved yes); made in house; host or cells: Escherichia coli Rosseta
Procedure: Wild-type FGFRs and mutant FGFRs were prepared as previously described[25]–[27]. In brief, the kinase domains of human FGFR1 (residues 456–765), FGFR2 (residues 453–770), FGFR3 (residues 450–758), and FGFR4 (residues 445–753) were cloned into a modified pET28a expression vector and then transfected into Escherichia coli Rosseta cells. The N-terminal of the recombinant proteins were contained a 6xHis tag followed by a PreScission cleavage site for FGFR1, FGFR2, FGFR3, and FGFR4. Site-directed mutagenesis of FGFR4 was generated according to the ClonExpress II One Step Cloning Kit (Vazyme) using the pET28a-FGFR4 plasmid as the template. These mutants were confirmed by DNA sequencing (Tsingke, Changsha, China). For crystallization experiments, the wild-type FGFR4 plasmid was co-expressed with untagged YOPH to obtain non-phosphorylated proteins. The proteins were first purified by Ni-NTA affinity chromatography. […]
All kinase inhibition assays were performed with optimized kinase assay buffer consisting of 40 mM Tris-HCl pH 7.5, 20 mM MgCl2, 20 mM NaCl, 0.1 mg/mL BSA, 1 mM TCEP, and 4% DMSO. […] Fluorescence was measured on a multimode plate reader (Perkin-Elmer) using a chemiluminescence program after the addition of the detection reagent. IC50 values were determined using a three-parameter log [Inhibitor] versus response model in GraphPad Prism software.

Chain of ITK (Q08881 whole entry): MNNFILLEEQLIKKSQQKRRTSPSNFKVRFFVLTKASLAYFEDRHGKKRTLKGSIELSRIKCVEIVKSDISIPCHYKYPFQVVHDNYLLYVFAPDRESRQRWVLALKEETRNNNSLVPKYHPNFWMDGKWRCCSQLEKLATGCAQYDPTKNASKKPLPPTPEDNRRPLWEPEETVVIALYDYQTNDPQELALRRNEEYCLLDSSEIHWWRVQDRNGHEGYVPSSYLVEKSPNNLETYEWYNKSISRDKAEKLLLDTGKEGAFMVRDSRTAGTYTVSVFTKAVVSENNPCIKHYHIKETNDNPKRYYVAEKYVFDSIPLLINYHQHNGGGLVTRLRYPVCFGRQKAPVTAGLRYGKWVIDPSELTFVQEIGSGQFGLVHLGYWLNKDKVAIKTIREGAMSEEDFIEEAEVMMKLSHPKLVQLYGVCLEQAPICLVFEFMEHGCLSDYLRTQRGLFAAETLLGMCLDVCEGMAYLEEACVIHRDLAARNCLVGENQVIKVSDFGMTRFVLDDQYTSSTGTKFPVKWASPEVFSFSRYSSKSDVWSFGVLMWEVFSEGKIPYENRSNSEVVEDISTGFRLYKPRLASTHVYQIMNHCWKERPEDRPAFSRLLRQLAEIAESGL
Chain of CK1α(CSNK1A1) (P48729 whole entry): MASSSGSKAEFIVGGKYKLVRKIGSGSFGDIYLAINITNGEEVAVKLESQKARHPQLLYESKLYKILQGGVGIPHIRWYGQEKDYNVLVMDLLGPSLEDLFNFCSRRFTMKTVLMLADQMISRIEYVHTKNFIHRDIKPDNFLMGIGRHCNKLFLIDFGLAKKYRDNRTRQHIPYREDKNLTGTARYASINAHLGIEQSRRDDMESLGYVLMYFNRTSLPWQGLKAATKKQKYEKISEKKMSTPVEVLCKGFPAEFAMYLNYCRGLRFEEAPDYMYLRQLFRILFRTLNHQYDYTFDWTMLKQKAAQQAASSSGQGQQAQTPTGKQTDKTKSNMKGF
Chain of MAP2K1 (Q02750 whole entry): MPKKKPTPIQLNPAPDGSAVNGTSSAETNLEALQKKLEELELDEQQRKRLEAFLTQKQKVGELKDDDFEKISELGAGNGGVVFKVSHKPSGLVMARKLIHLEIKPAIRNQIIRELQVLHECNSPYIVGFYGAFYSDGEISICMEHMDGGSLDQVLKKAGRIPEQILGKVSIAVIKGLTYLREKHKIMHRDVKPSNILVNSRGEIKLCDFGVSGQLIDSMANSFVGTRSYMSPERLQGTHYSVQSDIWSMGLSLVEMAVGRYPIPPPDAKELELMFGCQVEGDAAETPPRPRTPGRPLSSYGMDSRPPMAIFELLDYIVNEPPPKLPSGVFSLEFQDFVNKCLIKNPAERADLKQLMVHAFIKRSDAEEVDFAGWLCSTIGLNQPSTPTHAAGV
Chain of EPHA8 (P29322 28-1005): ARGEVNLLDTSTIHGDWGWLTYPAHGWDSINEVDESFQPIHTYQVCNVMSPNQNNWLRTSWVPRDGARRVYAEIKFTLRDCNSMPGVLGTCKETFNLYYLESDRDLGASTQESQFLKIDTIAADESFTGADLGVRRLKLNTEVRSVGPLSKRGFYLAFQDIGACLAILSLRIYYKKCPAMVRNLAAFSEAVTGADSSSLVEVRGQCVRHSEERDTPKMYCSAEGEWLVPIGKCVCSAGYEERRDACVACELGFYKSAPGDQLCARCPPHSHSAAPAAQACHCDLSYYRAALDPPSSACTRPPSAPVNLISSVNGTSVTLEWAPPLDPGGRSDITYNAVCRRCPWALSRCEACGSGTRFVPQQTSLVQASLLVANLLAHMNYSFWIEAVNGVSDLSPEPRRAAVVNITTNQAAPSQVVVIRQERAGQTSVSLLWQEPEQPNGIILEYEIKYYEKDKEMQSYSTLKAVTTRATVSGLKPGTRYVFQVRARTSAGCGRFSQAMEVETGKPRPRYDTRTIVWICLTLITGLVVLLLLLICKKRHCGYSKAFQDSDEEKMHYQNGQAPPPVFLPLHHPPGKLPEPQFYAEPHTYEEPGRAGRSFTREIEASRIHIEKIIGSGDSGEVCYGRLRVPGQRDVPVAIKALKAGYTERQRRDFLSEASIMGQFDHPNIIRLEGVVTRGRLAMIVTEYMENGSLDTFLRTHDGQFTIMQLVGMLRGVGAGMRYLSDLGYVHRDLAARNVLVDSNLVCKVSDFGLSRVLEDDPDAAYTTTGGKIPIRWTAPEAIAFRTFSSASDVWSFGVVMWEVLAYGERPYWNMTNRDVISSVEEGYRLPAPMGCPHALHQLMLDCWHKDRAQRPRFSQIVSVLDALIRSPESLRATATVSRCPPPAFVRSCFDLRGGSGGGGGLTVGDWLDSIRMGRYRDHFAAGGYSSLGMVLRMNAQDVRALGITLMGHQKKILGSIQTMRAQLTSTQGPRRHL
Chain of PLK1 (P53350 whole entry): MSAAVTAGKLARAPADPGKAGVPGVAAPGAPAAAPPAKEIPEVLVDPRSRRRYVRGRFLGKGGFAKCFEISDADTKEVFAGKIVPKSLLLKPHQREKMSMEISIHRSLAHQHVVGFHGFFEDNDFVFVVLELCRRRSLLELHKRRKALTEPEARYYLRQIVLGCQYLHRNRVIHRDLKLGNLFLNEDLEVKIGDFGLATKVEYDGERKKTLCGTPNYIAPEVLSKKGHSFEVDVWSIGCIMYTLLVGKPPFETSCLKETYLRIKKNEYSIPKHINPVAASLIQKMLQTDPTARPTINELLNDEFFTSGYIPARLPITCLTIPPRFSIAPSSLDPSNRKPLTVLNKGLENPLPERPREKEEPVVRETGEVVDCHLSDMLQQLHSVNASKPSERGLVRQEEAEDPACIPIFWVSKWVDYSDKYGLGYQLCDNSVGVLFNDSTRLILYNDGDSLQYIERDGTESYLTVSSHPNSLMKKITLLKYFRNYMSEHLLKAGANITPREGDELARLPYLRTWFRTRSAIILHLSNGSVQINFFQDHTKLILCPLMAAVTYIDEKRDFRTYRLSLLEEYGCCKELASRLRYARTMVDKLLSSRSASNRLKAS
Chain of TSSK1 (Q9BXA7 whole entry): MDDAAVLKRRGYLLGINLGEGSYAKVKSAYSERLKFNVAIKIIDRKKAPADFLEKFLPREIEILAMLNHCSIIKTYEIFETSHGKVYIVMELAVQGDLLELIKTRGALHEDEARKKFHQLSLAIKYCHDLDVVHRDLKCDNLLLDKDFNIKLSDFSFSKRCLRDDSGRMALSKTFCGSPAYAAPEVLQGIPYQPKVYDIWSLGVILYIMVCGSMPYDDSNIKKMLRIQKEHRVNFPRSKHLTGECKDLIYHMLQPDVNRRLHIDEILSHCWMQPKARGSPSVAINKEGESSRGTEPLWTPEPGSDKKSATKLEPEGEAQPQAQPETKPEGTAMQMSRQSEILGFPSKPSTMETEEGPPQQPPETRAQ
Chain of SRM (Q9H3Y6 whole entry): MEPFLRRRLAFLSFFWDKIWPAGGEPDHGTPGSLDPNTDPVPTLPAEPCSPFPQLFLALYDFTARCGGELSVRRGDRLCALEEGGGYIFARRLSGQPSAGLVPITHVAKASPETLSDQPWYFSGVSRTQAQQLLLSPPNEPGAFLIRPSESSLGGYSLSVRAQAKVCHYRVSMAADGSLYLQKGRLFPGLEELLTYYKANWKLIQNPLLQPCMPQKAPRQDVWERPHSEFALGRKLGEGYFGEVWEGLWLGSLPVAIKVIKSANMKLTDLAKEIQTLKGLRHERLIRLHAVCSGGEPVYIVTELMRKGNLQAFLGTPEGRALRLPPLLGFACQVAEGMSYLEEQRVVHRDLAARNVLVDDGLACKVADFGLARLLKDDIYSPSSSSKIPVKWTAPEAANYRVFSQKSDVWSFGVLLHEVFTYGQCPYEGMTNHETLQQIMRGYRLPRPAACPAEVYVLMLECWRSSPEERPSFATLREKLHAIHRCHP
Chain of HCK (P08631 whole entry): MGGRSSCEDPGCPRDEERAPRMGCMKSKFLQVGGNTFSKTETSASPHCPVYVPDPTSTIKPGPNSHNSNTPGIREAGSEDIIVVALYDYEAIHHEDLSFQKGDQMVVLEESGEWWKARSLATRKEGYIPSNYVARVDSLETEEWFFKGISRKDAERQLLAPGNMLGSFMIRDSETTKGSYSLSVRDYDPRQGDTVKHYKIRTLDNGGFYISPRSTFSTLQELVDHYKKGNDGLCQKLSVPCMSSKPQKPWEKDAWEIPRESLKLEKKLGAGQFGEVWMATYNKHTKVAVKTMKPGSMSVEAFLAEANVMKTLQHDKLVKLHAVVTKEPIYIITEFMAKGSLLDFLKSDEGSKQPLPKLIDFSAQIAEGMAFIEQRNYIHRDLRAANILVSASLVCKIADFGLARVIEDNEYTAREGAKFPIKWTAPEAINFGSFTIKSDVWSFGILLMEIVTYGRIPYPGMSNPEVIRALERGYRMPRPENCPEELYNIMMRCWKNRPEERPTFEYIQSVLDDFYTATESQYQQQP
Chain of NPM1-ALK (P06748+Q9UM73 fused): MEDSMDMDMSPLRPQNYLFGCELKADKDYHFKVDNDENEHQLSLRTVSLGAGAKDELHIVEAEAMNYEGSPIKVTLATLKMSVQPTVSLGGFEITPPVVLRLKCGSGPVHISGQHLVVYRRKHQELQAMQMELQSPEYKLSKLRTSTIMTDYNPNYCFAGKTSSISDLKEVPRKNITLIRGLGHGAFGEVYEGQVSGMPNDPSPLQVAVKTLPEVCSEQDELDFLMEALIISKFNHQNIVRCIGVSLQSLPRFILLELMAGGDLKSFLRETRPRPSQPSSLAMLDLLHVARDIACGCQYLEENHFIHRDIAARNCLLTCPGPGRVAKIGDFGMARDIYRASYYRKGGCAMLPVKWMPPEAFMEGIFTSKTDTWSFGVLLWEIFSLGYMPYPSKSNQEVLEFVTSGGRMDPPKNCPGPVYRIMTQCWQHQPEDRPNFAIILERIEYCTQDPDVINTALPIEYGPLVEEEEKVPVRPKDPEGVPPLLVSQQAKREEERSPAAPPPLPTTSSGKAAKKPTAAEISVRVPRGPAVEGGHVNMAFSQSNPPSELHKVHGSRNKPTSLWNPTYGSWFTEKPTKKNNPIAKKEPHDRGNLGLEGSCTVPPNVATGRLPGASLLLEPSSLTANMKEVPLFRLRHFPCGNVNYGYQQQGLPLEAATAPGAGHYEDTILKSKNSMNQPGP

C=CC(=O)Nc1ccccc1Nc1ncc2c(n1)N(CCCN1CCN(C(=O)C=C)CC1)C(=O)N(c1cc(OC)cc(OC)c1)C2 [CXF-009] was tested. Which inhibition at 1 µM (DYRK4) did it give?
Its inhibition at 1 µM is 1.84%.

What about the inhibition at 1 µM (TRKB) of the same compound?
Its inhibition at 1 µM is 42.1%.

What about the inhibition at 1 µM (TSSK1) of the same compound?
Its inhibition at 1 µM is 30%.

What about the inhibition at 1 µM (PI3K(p120gamma)) of the same compound?
The inhibition at 1 µM was 15%.

And the inhibition at 1 µM (SRM)?
Its inhibition at 1 µM is 5.29%.

And the inhibition at 1 µM (CK1γ1)?
The inhibition at 1 µM was 4.78%.

What about the inhibition at 1 µM (ITK) of the same compound?
The inhibition at 1 µM was 4.35%.

And the inhibition at 1 µM (ACK)?
Its inhibition at 1 µM is 4.18%.

What about the inhibition at 1 µM (MER) of the same compound?
The inhibition at 1 µM was 3.59%.

What about the inhibition at 1 µM (GLK) of the same compound?
The inhibition at 1 µM was 2.68%.

What about the inhibition at 1 µM (CK1α(CSNK1A1)) of the same compound?
The inhibition at 1 µM was 2.6%.

And the inhibition at 1 µM (ABL2)?
Its inhibition at 1 µM is 1.61%.

And the inhibition at 1 µM (Her4(ERBB4))?
Its inhibition at 1 µM is 0.69%.

What about the inhibition at 1 µM (MAP2K1) of the same compound?
Its inhibition at 1 µM is 0.59%.

And the inhibition at 1 µM (PLK1)?
The inhibition at 1 µM was 0.59%.

And the inhibition at 1 µM (SGK2)?
Its inhibition at 1 µM is 0.51%.

What about the inhibition at 1 µM (NPM1-ALK) of the same compound?
Its inhibition at 1 µM is 0.37%.

What about the inhibition at 1 µM (FRK) of the same compound?
The inhibition at 1 µM was -0.22%.

What about the inhibition at 1 µM (AKT3) of the same compound?
The inhibition at 1 µM was -0.52%.

What about the inhibition at 1 µM (EPHA8) of the same compound?
Its inhibition at 1 µM is -0.52%.

And the inhibition at 1 µM (TAOK1)?
The inhibition at 1 µM was -0.59%.

And the inhibition at 1 µM (EPHB3)?
The inhibition at 1 µM was -0.82%.

What about the inhibition at 1 µM (IGF1R) of the same compound?
The inhibition at 1 µM was -2.13%.

What about the inhibition at 1 µM (HCK) of the same compound?
The inhibition at 1 µM was -11.6%.

What about the inhibition at 1 µM (TIE2) of the same compound?
The inhibition at 1 µM was -12.8%.

What about the inhibition at 1 µM (TNIK) of the same compound?
The inhibition at 1 µM was -13.4%.

And the IC50 (FGFR3)?
The IC50 was 977 nM.
